Experimental data: PMC5007650, “Crystal structure of the two-subunit tRNA m^1A58 methyltransferase TRM6-TRM61 from Saccharomyces cerevisiae” (Scientific Reports, 2016)

Legend:
Experiment in all cases: isothermal titration calorimetry, single-site fit
Format in all cases: binding
TRM6-TRM61 holoenzyme [1] = molecular target: T1, TRM6-TRM61 holoenzyme (Saccharomyces cerevisiae, UniProt P46959)
T1 construct: gene GCD14; full-length TRM6 (478 residues) and TRM61 co-expressed from pETDuet-TRM6-TRM61 in bacteria; Ni-NTA and gel filtration; with tRNA (adenine(58)-N(1))-methyltransferase non-catalytic subunit TRM6

TRM6-TRM61 holoenzyme [2] = molecular target: T2, TRM6-TRM61 holoenzyme (Saccharomyces cerevisiae, UniProt P46959, F140A)
T2 construct: gene GCD14; full-length TRM6 (478 residues) and TRM61 co-expressed from pETDuet-TRM6-TRM61 in bacteria; Ni-NTA and gel filtration; with tRNA (adenine(58)-N(1))-methyltransferase non-catalytic subunit TRM6
Source text: (§1) isothermal titration calorimetry, single-site fit on TRM6-TRM61 holoenzyme

TRM6-TRM61 holoenzyme [3] = molecular target: T3, TRM6-TRM61 holoenzyme (Saccharomyces cerevisiae, UniProt P46959, F124A)
T3 construct: gene GCD14; full-length TRM6 (478 residues) and TRM61 co-expressed from pETDuet-TRM6-TRM61 in bacteria; Ni-NTA and gel filtration; with tRNA (adenine(58)-N(1))-methyltransferase non-catalytic subunit TRM6
Source text: as §1

TRM6-TRM61 holoenzyme [4] = molecular target: T4, TRM6-TRM61 holoenzyme (Saccharomyces cerevisiae, UniProt P46959, V169A)
T4 construct: gene GCD14; full-length TRM6 (478 residues) and TRM61 co-expressed from pETDuet-TRM6-TRM61 in bacteria; Ni-NTA and gel filtration; with tRNA (adenine(58)-N(1))-methyltransferase non-catalytic subunit TRM6
Source text: as §1

T2 sequence (P46959 whole entry F140A): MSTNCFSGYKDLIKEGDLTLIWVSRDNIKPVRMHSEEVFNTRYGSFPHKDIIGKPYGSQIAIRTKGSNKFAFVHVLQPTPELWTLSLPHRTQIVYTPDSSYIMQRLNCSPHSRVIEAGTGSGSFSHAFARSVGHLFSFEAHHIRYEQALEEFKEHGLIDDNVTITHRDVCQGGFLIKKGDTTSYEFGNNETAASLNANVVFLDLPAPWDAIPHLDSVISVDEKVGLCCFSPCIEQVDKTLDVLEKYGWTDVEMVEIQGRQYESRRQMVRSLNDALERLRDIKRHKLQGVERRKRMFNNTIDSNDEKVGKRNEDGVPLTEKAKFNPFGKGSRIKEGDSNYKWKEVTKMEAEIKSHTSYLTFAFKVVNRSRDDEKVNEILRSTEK
T2 sequence (P41814 whole entry partner): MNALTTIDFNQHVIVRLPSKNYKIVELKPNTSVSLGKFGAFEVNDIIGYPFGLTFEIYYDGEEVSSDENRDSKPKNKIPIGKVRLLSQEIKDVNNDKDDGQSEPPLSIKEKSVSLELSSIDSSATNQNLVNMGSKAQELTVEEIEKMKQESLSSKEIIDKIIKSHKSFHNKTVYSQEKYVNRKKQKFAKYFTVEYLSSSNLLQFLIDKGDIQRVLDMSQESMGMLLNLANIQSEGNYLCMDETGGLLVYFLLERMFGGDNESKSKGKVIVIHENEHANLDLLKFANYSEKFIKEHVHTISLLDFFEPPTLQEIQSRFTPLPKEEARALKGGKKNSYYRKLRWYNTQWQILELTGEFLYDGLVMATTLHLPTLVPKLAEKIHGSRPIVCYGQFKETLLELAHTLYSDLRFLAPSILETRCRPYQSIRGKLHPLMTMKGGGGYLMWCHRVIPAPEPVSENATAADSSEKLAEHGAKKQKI
T4 sequence (P46959 whole entry V169A): as the sequence (P46959 whole entry F140A) above, with A140F, V169A counted along it
T4 sequence (P41814 whole entry partner): as the sequence (P41814 whole entry partner) above
T3 sequence (P46959 whole entry F124A): as the sequence (P46959 whole entry F140A) above, with F124A, A140F counted along it
T3 sequence (P41814 whole entry partner): as the sequence (P41814 whole entry partner) above
T1 sequence (P46959 whole entry): as the sequence (P46959 whole entry F140A) above, with A140F counted along it
T1 sequence (P41814 whole entry partner): as the sequence (P41814 whole entry partner) above

C[S+](CC[C@H](N)C(=O)O)C[C@H]1O[C@@H](n2cnc3c(N)ncnc32)[C@H](O)[C@@H]1O (stereo partly shown) [SAM] gave a Kd (TRM6-TRM61 holoenzyme [1]) of 44.3 ± 4.55 µM, a Kd (TRM6-TRM61 holoenzyme [2]) of 787 ± 64.5 µM and a Kd (TRM6-TRM61 holoenzyme [3]) of 317 ± 34.7 µM. The Kd (TRM6-TRM61 holoenzyme [4]) was 409 ± 74.7 µM.
